According to patent publication US7384931B2, “Constrained compounds as CGRP-receptor antagonists” (Bristol-Myers Squibb Company, priority 2004, dated 2008):
Counter-ions that a name gives are not always drawn.

target: CGRP receptor (Homo sapiens, UniProt O60894+Q16602); test: CGRP radioligand binding assay ([125I]-CGRP displacement, SK-N-MC homogenate); design: endogenous in cells; host or cells: SK-N-MC cells (homogenate/membrane pellet); conditions: displacement of [125I]-CGRP, room temperature 2 h
Sequence (Q16602 23-461): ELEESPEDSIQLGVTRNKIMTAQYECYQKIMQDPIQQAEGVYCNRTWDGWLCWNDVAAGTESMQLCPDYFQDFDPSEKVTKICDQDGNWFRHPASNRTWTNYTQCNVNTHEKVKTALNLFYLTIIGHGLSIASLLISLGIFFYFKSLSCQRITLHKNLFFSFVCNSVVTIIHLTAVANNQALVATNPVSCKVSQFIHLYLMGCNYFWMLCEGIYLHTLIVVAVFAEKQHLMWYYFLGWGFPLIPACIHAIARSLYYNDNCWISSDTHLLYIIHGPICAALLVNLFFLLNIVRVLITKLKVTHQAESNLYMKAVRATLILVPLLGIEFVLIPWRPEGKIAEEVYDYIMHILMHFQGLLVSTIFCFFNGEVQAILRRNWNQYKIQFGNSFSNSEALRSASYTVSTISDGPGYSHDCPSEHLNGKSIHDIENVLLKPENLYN
Sequence (O60894 27-148): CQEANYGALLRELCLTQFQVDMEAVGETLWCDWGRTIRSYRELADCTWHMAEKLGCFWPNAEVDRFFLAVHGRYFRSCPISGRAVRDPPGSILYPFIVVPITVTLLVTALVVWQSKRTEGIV
Experimental: CGRP Binding Assay. Tissue Culture. SK—N-MC cells were grown at 37° C. in 5% CO2 as a monolayer in medium consisting of MEM with Earle's salts and L-glutamine (Gibco) supplemented with 10% fetal bovine serum (Gibco). Cell Pellets. The cells were rinsed twice with phosphate-buffered saline (155 mM NaCl, 3.3 mM Na2HPO4, 1.1 mM KH2PO4, pH 7.4), and incubated for 5-10 min. at 4° C. in hypotonic lysis buffer consisting of 10 mM Tris (pH 7.4) and 5 mM EDTA. The cells were transferred from plates to polypropylene tubes (16×100 mm) and homogenized using a polytron. Homogenates were centrifuged at 32,000×g for 30 min. The pellets were resuspended in cold hypotonic lysis buffer with 0.1% mammalian protease inhibitor cocktail (Sigma) and assayed for protein concentration. The SK—N-MC homogenate was then aliquoted and stored at −80° C. until needed.
Radioligand Binding Assay. The compounds of invention were solubilized and carried through serial dilutions using 100% DMSO. Aliquots from the compound serial dilutions were further diluted 25 fold into assay buffer (50 mM Tris-Cl pH 7.5, 5 mM MgCl2, 0.005% Triton X-100) and transferred (volume 50 μl) into 96 well assay plates. [^125I]-CGRP (Amersham Biosciences) was diluted to 60 pM in assay buffer and a volume of 50 μl was added to each well. SK—N-MC pellets were thawed, diluted in assay buffer with fresh 0.1% mammalian protease inhibitor cocktail (Sigma), and homogenized again. SK—N-MC homogenate (5 μg/well) was added in a volume of 100 μl. The assay plates were then incubated at room temperature for 2 h. Assays were stopped by addition of excess cold wash buffer (20 mM Tris-Cl pH 7.5, 0.1% BSA) immediately followed by filtration over glass fiber filters (Whatman GF/B) previously soaked in 0.5% PEI. Non-specific binding was defined with 1 μM beta-CGRP. Protein bound radioactivity was determined using a gamma or scintillation counter. The IC50 was defined as the concentration of a compound of invention required to displace 50% of radioligand binding.

Structure (SMILES) | IC50
CC(C)(C)CN1Cc2c(cc(Cl)c3[nH]ncc23)C[C@@H](CC(=O)Nc2ccc3c(c2)CCC2(C3)NC(=O)NC2=O)C1=O (mixture of isomers) [Example 86, (±)-1-[[(7S)-4-chloro-9-(2,2-dimethylpropyl)-3,6,7,8,9,10-hexahydro-8-oxoazepino[3,4-e]indazol-7-yl]yacetyl]-Amino-3′,4′-dihydro-^1H-spiro[imidazolidine-4,2′naphthalene]-2,5-dione] | 0.1 to 10 nM
Cc1cc2c(cc1N)CN(Cc1ccccc1)C(=O)[C@H](NC(=O)N1CCC(N3Cc4ccccc4NC3=O)CC1)C2 [Example 55, (R)-N-(8-Amino-2-benzyl-7-methyl-3-oxo-2,3,4,5-tetrahydro-1H-benzo[c]azepin-4-yl)-4-(2-oxo-1,2-dihydroquinazolin-3(4H)-yl)piperidine-1-carboxamide trifluoroacetate] | 100 to 1000 nM
CC(C)(C)CN1Cc2c(ccc3[nH]ncc23)C[C@@H](NC(=O)N2CCC(N3Cc4ccccc4CC3=O)CC2)C1=O [Example 69, (R)-N-(9-Neopentyl-8-oxo-3,6,7,8,9,10-hexahydroazepino[3,4-e]indazol-7-yl)-4-(3-oxo-3,4-dihydroisoquinolin-2(1H)-yl)piperidine-1-carboxamide] | 10 to 100 nM
CC(C)(C)CN1Cc2c(ccc3[nH]ncc23)C[C@@H](NC(=O)N2CCC(C3Cc4ccccc4NC3=O)CC2)C1=O (stereo partly drawn) [Example 67, N-((R)-9-neopentyl-8-oxo-3,6,7,8,9,10-hexahydroazepino[3,4-e]indazol-7-yl)-4-(2-oxo-1,2,3,4-tetrahydroquinolin-3-yl)piperidine-1-carboxamide] | 10 to 100 nM
O=C(C[C@@H]1Cc2cc(Br)c3[nH]ncc3c2CN(CC(F)(F)F)C1=O)N1CCC(c2cc3ccccc3[nH]c2=O)CC1 [Example 97, (S)-4-bromo-7-(2-oxo-2-(4-(2-oxo-1,2-dihydroquinolin-3-yl)piperidin-1-yl)ethyl)-9-(2,2,2-trifluoroethyl)-6,7,9,10-tetrahydroazepino[3,4-e]indazol-8(3H)-one] | 0.1 to 10 nM
O=C(N[C@@H]1Cc2ccc3[nH]ncc3c2CN(C2CCNC2)C1=O)N1CCC(N2Cc3ccccc3NC2=O)CC1 (stereo partly drawn) [Example 63, 4-(2-oxo-1,2-dihydroquinazolin-3(4H)-yl)-N-((R)-8-oxo-9-(pyrrolidin-3-yl)-3,6,7,8,9,10-hexahydroazepino[3,4-e]indazol-7-yl)piperidine-1-carboxamide] | 100 to 1000 nM
Cc1cc2c(c3cn[nH]c13)CN(CC(F)(F)F)C(=O)[C@H](CC(=O)N1CCC(c3cc4cccc(F)c4[nH]c3=O)CC1)C2 [Example 103, (S)-7-(2-(4-(8-fluoro-2-oxo-1,2-dihydroquinolin-3-yl)piperidin-1-yl)-2-oxoethyl)-4-methyl-9-(2,2,2-trifluoroethyl)-6,7,9,10-tetrahydroazepino[3,4-e]indazol-8(3H)-one] | 10 to 100 nM
O=C(N[C@@H]1Cc2ccc3[nH]ncc3c2CN(CCN2CCCC2)C1=O)N1CCC(N2Cc3ccccc3NC2=O)CC1 [Example 4, 4-(2-Oxo-1,4-dihydro-2H-quinazolin-3-yl)-piperidine-1-carboxylic acid [8-oxo-9-(2-pyrrolidin-1-yl-ethyl)-3,6,7,8,9,10-hexahydro-2,3,9-triaza-(R)-cyclohepta[e]inden-7-yl]-amide] | 100 to 1000 nM
CC(C)(C)CN1Cc2c(ccc3[nH]ncc23)C[C@@H](NC(=O)N2CCC(c3cc(-c4ccccc4)no3)CC2)C1=O [Example 65, (R)-N-(9-neopentyl-8-oxo-3,6,7,8,9,10-hexahydroazepino[3,4-e]indazol-7-yl)-4-(3-phenylisoxazol-5-yl)piperidine-1-carboxamide] | > 1000 nM
CC(C)(C)CN1Cc2c(ccc3[nH]ncc23)C[C@H](CC(=O)N2CCC(N3Cc4ccccc4NC3=O)CC2)C1=O [Example 66, 9-(2,2-dimethyl-propyl)-7-(R)-{2-oxo-2-[4-(2-oxo-1,4-dihydro-2H-quinazolin-3-yl)-piperidin-1-yl]-ethyl}-6,7,9,10-tetrahydro-3H-2,3,9-triaza-cyclohepta[e]inden-8-one] | 10 to 100 nM
O=C1Nc2ccccc2C2(CCN(C(=O)N[C@@H]3Cc4ccc5[nH]ncc5c4CN(Cc4ccc(C(F)(F)F)cc4)C3=O)CC2)N1 [Example 14, ′H-spiro[piperidine-4,4′-quinazolin]-2′(3′H)-one-1-carboxylic acid [8-oxo-9-(4-trifluoromethyl-benzyl)-3,6,7,8,9,10-hexahydro-2,3,9-triaza-(R)-cyclohepta[e]inden-7-yl]-amide] | 100 to 1000 nM

The next lines start with the values.

IC50 | Structure (SMILES)
10 to 100 nM | CC(C)(C)CN1Cc2c(cc(Cl)c3[nH]ncc23)C[C@@H](CC(=O)N2CCC(c3nc4ccccc4[nH]c3=O)CC2)C1=O [Example 48, (S)-4-Chloro-9-neopentyl-7-(2-oxo-2-(4-(3-oxo-3,4-dihydroquinoxalin-2-yl)piperidin-1-yl)ethyl)-6,7,9,10-tetrahydroazepino[3,4-e]indazol-8(3H)-one]
10 to 100 nM | CC(C)c1cc2c(c3cn[nH]c13)CN(CC(F)(F)F)C(=O)[C@H](CC(=O)N1CCC(c3cc4ccccc4[nH]c3=O)CC1)C2 [Example 106, (S)-4-isopropyl-7-(2-oxo-2-(4-(2-oxo-1,2-dihydroquinolin-3-yl)piperidin-1-yl)ethyl)-9-(2,2,2-trifluoroethyl)-6,7,9,10-tetrahydroazepino[3,4-e]indazol-8(3H)-one]
0.1 to 10 nM | CC(C)(C)CN1Cc2c(cc(Cl)c3[nH]ncc23)C[C@@H](CC(=O)N2CCC(N3Cc4cccnc4NC3=O)CC2)C1=O [Example 78]
100 to 1000 nM | CC(C)(C)CN1Cc2c(cc(Cl)c3[nH]ncc23)C[C@@H](CC(=O)N2CCC(c3ccc(-c4ccccc4)c[n+]3[O-])CC2)C1=O [Example 84, (S)-1-[[(7S)-4-chloro-9-(2,2-dimethylpropyl)-3,6,7,8,9,10-hexahydro-8-oxoazepino[3,4-e]indazol-7-yl]acetyl]-4-(1-oxido-5-phenyl-2-pyridinyl)-piperidine]
10 to 100 nM | CC(C)(C)CN1Cc2c(cc(Br)c3[nH]ncc23)C[C@@H](CC(=O)N2CCC(c3cc4cccc(F)c4[nH]c3=O)CC2)C1=O [Example 95, (S)-4-bromo-7-(2-(4-(8-fluoro-2-oxo-1,2-dihydroquinolin-3-yl)piperidin-1-yl)-2-oxoethyl)-9-neopentyl-6,7,9,10-tetrahydroazepino[3,4-e]indazol-8(3H)-one]
10 to 100 nM | CC(C)c1cc2c(c3cn[nH]c13)CN(CC(C)(C)C)C(=O)[C@H](CC(=O)N1CCC(c3cc4ccccc4[nH]c3=O)CC1)C2 [Example 104, (S)-4-isopropyl-9-neopentyl-7-(2-oxo-2-(4-(2-oxo-1,2-dihydroquinolin-3-yl)piperidin-1-yl)ethyl)-6,7,9,10-tetrahydroazepino[3,4-e]indazol-8(3H)-one]
10 to 100 nM | CC(C)(C)CN1Cc2c(cc(Cl)c3[nH]ncc23)C[C@@H](CC(=O)N2CCC(C3=Cc4ccccc4NS3(=O)=O)CC2)C1=O [Example 92]
0.1 to 10 nM | O=C(C[C@@H]1Cc2cc(Cl)c3[nH]ncc3c2CN(CC(F)(F)F)C1=O)N1CCC(c2cc3ccccc3[nH]c2=O)CC1 [Example 90, (S)-4-chloro-7-(2-oxo-2-(4-(2-oxo-1,2-dihydroquinolin-3-yl)piperidin-1-yl)ethyl)-9-(2,2,2-trifluoroethyl)-6,7,9,10-tetrahydroazepino[3,4-e]indazol-8(3H)-one]
